This is an account of results in US20230174548A1, “SYMBIOTIC PRODRUGS FOR THE TREATMENT OF CANCER AND OTHER DISEASES” (BOARD OF REGENTS OF THE UNIVERSITY OF NEBRASKA, priority 2020, published 2023).

In general, IC50 refers to the concentration that gives 50% inhibition.

In data set [1] the test system is FTE282E1, OVSAHO, HPNE, MiaPaCa2 and S2013 cell lines. As to the kind of experiment: growth inhibition assays in a panel of five cell lines. Particulars: for potency rank among inhibitors treated as single agents: irrespective of the cell line.
For another data set, the target named is T1, IKKβ (Homo sapiens, UniProt O14920).
T1 construct: endogenous in cells; host or cells: A2780
As to the kind of experiment: target engagement in A2780 cells (click chemistry pull-down, Western blot). Type of data set: cell-based. Particulars: 48 h. The procedure:
(§1) Briefly, the cells were incubated with 10 μM of compound 4 for […]. In cells, compound 4 is converted to compound 3 with an active methylene group which reacts with surface-exposed cysteine residues on proteins. The lysate was treated with click reagents (TCEP, TBTA and CuSO4) and azido-biotin. Biotin-tagged-3-bound proteins were subjected to monoavidin column. Biotin-tagged proteins were captured, the column was washed to removed untagged proteins and the biotin-tagged-3-bound proteins were eluted with regeneration buffer (6M urea/PBS). The eluted lysates were subjected to Western blot analyses and probed for proteins (IKKβ, RELA, IκBα and IKKγ) in the IKK complex.
(§2) To determine target engagement in cells, cancer cells (A2780) were treated with the compound 4, which is an alkyne-tagged analog of prodrug compound 19-AP1 for 48 h (FIG. 2B). Cells were then harvested, washed and pelleted. Unbound compound 4 was removed by extensively washing the cell pellet. The cell pellets were lysed, and 2 mg/mL of lysates were subjected to click chemistry with TAMRA-Biotin-Azide trifunctional probe (10 mM stock, 20 μL, click chemistry tools), and other click reagents (TCEP, 100 mM stock, 20 μL; TBTA 13.5 mM stock, 20 μL and CuSO4 100 mM stock, 10 μL) to make total volume of 1 mL. The reaction was incubated for 3 h at RT. The lysates were incubated with monomeric avidin beads for additional 1 h. […]

For a further data set, the target named is T2, RELA (Homo sapiens, UniProt Q04206).
T2 construct: endogenous in cells; host or cells: A2780
The description is as above. It is filed as cell-based. Particulars: 48 h. As to the method: as §1, §2

The target in the next data set is CDK4 (Homo sapiens, UniProt P11802). The experiment in a line: cell-free CDK inhibitor assay. It is filed as biochemical. Particulars: for fold less potent than palbociclib: CDK4; for IC50: CDK4, cell-free.
Another data set concerns the target CDK6 (Homo sapiens, UniProt Q00534). The experiment in a line: cell-free CDK inhibitor assay. Type of data set: biochemical. The note with it: for fold less potent than palbociclib: CDK6; for IC50: CDK6, cell-free.
Data set [2] concerns FT282E1 immortalized fallopian tube epithelial cell line. As to the kind of experiment: growth inhibition, synergy studies. Type of data set: cell-based. Particulars: for IC50: Epithelial cell, FT282E1, read-out: IC50 (Mean ± SD).
For data set [3], the system named is FT282C11 immortalized fallopian tube epithelial cell line. As to the kind of experiment: growth inhibition, synergy studies. Type of data set: cell-based. Particulars: read-out: IC50 (Mean ± SD).
Data set [4] relates to CaOV3 ovarian cancer cell line. The experiment in a line: growth inhibition, synergy studies. The note with it: Homo sapiens, Caov-3, read-out: IC50 (Mean ± SD). Type of data set: cell-based.
Data set [5] has as its system OVCAR5 ovarian cancer cell line. The experiment in a line: growth inhibition, synergy studies. It is filed as cell-based. Particulars: Homo sapiens, OVCAR-5, read-out: IC50 (Mean ± SD).
Data set [6] concerns OVCAR8 ovarian cancer cell line. As to the kind of experiment: growth inhibition, synergy studies. Particulars: Homo sapiens, OVCAR-8, read-out: IC50 (Mean ± SD). It is filed as cell-based.
Data set [7] concerns A2780 ovarian cancer cell line. As to the kind of experiment: growth inhibition, synergy studies. Type of data set: cell-based. Particulars: Homo sapiens, read-out: IC50 (Mean ± SD).
Data set [8] deals with Kuramochi ovarian cancer cell line. As to the kind of experiment: growth inhibition, synergy studies. Particulars: read-out: IC50 (Mean ± SD). Type of data set: cell-based.
Data set [9] deals with OVCAR4 ovarian cancer cell line. As to the kind of experiment: growth inhibition, synergy studies. Type of data set: cell-based. The note with it: Homo sapiens, OVCAR-4, read-out: IC50 (Mean ± SD).
For data set [10], the system named is OVSAHO ovarian cancer cell line. The experiment in a line: growth inhibition, synergy studies. Type of data set: cell-based. Particulars: for IC50: Homo sapiens, OVSAHO, read-out: IC50 (Mean ± SD).
Data set [11] has as its system SKOV3 ovarian cancer cell line. As to the kind of experiment: growth inhibition, synergy studies. The note with it: for IC50: Homo sapiens, SK-OV-3, SKOV3, read-out: IC50 (Mean ± SD). Type of data set: cell-based.
The test system of data set [12] is SNU119 ovarian cancer cell line. As to the kind of experiment: growth inhibition, synergy studies. Type of data set: cell-based. The note with it: read-out: IC50 (Mean ± SD).
The subject of data set [13] is 9 ovarian cancer and 2 immortalized fallopian tube epithelial cell lines. The experiment in a line: growth inhibition, expanded panel, average over cell lines. It is filed as cell-based. Particulars: average over 11 cell lines. The source says:
The ^AveCI for compound 5 in SKOV3 cells was 0.2 indicating strong synergism.

Data set [14] is described as follows: cysteine binding assay using Ellman's reagent. Particulars: 19 vs prodrug under similar conditions. It is filed as physicochemical. The source says: Without wishing to be bound by theory, it is believed that the α-methylene-γ-butyrolactone moiety on compound 19 is reactive toward biological nucleophiles such as glutathione and cysteine. To determine if secondary amine prodrug of compound 19 (Compound 19-AP1) results in improved stability, the reactivity of analog compound 19 and the prodrug compound 19-AP1 was compared in a cysteine binding assay using Ellman's reagent (FIG. 1B).
(In Ellman's method for cholinesterases, released thiocholine reacts with DTNB.)

Data set [15] has as its system A2780 ovarian cancer line. As to the kind of experiment: 72 h growth inhibition assay. It is filed as cell-based. Particulars: Homo sapiens, A2780, 72 h. The procedure: (§3) The cancer cell growth-inhibitory potential of amine-prodrugs (compounds 19-AP1 and 19-AP2) was evaluated. Compounds 19, 19-AP1 and 19-AP2 were screened in ovarian cancer lines (A2780, and OVSAHO) and immortalized fallopian tube epithelial cells (FT282E1) in a 72 h growth inhibition assay.

The test system of data set [16] is FT282E1 immortalized fallopian tube epithelial cells. The experiment in a line: 72 h growth inhibition assay. It is filed as cell-based. Particulars: Epithelial cell; FT282E1, 72 h. The procedure: as §3
Data set [17] concerns OVSAHO ovarian cancer line. The experiment in a line: 72 h growth inhibition assay. Type of data set: cell-based. Particulars: for IC50: Homo sapiens, 72 h. As to the method: as §3
Data set [18] can be described thus: 19F NMR kinetics of release of compound 19 from prodrug. Particulars: release of 4-trifluoromethylpiperidine. Type of data set: physicochemical. From the text:
Next, to assess the kinetics of the release of the active compound 19 from the prodrug compound 19-AP1, the release of 4trifluoropiperidine from the prodrug compound 19-AP1 was monitored using ^19F-NMR spectroscopy following a reported method. (Woods, Mo, Bieberich, Alavanja, & Colby, 2011). […] This observation is consistent with previously reported studies with a prodrug of parthenolide.

The conditions of data set [19]: Phase II and III clinical trials; cited from earlier work.

Bounds are passed on as bounds.

Chain of CDK4 (P11802 whole entry): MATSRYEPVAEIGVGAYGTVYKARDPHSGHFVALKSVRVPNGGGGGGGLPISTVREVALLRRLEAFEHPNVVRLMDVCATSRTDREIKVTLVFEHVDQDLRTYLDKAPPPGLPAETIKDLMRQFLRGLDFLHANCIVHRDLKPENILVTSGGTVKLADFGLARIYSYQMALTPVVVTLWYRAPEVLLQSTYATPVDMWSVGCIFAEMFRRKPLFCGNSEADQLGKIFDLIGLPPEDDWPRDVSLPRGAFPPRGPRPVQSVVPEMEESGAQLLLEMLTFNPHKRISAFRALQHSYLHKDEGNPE
Chain of CDK4 (P24385 whole entry partner): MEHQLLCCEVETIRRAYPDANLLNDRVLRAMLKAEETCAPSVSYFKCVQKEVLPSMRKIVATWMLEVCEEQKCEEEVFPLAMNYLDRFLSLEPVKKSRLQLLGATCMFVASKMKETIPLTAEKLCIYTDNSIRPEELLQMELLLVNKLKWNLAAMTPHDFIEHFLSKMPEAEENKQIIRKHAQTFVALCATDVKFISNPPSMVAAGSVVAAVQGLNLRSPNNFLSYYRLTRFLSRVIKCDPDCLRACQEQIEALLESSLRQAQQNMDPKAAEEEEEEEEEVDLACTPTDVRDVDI
Chain of CDK6 (Q00534 whole entry): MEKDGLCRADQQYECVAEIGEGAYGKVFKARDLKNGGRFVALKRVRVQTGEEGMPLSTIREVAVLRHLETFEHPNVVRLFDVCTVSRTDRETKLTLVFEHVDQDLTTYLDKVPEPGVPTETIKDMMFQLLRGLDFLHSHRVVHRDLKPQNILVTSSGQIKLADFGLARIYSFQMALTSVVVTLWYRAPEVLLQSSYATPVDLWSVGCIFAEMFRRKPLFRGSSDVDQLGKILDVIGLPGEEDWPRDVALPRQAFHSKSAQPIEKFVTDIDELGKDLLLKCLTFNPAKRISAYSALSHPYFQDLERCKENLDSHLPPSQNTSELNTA
Chain of CDK6 (P30281 whole entry partner): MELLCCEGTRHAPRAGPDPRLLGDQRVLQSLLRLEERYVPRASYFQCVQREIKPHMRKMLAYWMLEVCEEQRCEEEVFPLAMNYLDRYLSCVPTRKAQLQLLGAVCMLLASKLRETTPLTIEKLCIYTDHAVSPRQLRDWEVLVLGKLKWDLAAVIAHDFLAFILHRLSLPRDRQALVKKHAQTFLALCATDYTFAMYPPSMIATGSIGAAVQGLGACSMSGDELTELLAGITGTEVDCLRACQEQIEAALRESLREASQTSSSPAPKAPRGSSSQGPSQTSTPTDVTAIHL
T1 sequence (O14920 whole entry): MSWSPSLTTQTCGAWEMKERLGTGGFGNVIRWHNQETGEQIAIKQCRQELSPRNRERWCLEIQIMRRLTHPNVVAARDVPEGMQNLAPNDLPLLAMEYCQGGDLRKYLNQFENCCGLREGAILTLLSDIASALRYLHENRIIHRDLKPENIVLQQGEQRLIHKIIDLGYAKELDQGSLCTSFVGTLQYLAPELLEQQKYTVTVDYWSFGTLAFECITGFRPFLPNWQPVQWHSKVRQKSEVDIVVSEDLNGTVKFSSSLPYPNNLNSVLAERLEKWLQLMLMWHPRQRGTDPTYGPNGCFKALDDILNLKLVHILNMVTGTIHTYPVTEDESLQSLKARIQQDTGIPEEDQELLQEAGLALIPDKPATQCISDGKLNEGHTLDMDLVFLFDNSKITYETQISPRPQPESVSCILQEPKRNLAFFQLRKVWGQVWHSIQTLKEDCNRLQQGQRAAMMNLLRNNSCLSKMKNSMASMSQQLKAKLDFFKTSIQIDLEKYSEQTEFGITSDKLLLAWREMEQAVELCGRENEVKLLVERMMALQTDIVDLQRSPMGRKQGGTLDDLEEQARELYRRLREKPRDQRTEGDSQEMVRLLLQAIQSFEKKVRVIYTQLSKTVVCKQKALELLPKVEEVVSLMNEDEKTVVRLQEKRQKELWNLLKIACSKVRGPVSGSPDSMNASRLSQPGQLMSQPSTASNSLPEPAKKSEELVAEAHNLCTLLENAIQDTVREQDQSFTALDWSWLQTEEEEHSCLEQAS
T2 sequence (Q04206 whole entry): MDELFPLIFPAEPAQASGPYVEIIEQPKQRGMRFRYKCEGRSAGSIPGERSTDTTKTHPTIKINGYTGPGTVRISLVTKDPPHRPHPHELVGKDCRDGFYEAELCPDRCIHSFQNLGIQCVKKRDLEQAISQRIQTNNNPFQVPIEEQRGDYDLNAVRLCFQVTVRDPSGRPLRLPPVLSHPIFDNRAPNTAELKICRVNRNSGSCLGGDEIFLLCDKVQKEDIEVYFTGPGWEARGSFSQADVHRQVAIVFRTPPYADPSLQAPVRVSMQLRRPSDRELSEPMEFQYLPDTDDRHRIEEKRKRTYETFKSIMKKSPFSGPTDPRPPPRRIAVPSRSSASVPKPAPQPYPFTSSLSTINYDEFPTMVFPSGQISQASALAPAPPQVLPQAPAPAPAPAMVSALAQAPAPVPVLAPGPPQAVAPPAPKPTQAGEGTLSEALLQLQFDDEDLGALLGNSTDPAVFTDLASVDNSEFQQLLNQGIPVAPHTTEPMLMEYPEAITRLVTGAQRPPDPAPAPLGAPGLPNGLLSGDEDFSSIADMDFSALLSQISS

Consider `O=C(NC1CCNCC1)c1[nH]ncc1NC(=O)c1c(Cl)cccc1Cl` [AT7519, reference compound], for which the “potency rank among inhibitors treated as single agents” value in data set [1] was “AT7519>compound 19>parthenolide>palbociclib”.
As for `C#CCN1C(=O)C2(CC(CN3CCC(C(F)(F)F)CC3)C(=O)O2)c2ccccc21` (stereo not drawn) [Compound 4, 1′-(prop-2-yn-1-yl)-4-((4-(trifluoromethyl)piperidin-1-yl)methyl)-3,4-dihydro-5H-spiro[furan2,3′-indoline]-2′,5-dione], the “covalent binding of IKKβ protein” value on IKKβ is “observed”. Also, the “covalent binding of RELA protein” value on RELA is “observed”.
As to `CC(=O)c1c(C)c2cnc(Nc3ccc(N4CCN(CC5CC6(OC5=O)C(=O)Nc5ccccc56)CC4)cn3)nc2n(C2CCCC2)c1=O` (stereo not drawn) [Compound 5, 4-((4-(6-((6-Acetyl-8-cyclopentyl-5-methyl-7-oxo-7,8-dihydropyrido[2,3-d]pyrimidin-2yl)amino)pyridin-3-yl)piperazin-1-yl)methyl)-3,4-dihydro-5H-spiro[furan-2,3′-indoline]-2′,5dione], the “fold less potent than palbociclib” value at CDK4 is listed as around 100 fold; at CDK6, around 20 fold. For the same molecule, the IC50 against CDK4 was 0.046 ± 0.014 µM; against CDK6, 0.009 ± 0.001 µM; in data set [2], 14.6 ± 1.2 µM; in data set [3] it was 21.8 ± 1.5 µM; in data set [4] it was 5.5 ± 0.5 µM; in data set [5], 9.3 ± 0.9 µM. In addition, the IC50 in data set [6] was 9.1 ± 0.9 µM; in data set [7] it was 6.6 ± 1.3 µM; in data set [8], above 40 µM; in data set [9], 17.9 ± 1.4 µM; in [10], 11.4 ± 0.9 µM; in [11], 15.4 ± 1.5 µM. Moreover, the IC50 in data set [12] was determined as 8.8 ± 1.6 µM. Besides, the “average combination index (AveCI)” value is on record as above 1.0 in data set [2] (FT282E1 cells); 0.9 in data set [10] (OVSAHO cells, effective dose (ED) 50, 75 and 90); 0.2 in data set [11] (SKOV3 cells). Besides, in data set [13], the “fold less potent than the corresponding 1:1 mixture, on an average” value is “equipotent”. For the same molecule, the “fold more potent than the parthenolide-palbociclib compound 6” value in data set [13] is reported as around 3 fold.
As to `CC(=O)c1c(C)c2cnc(Nc3ccc(N4CCN(CC5C(=O)O[C@@H]6[C@H]7O[C@]7(C)CCC/C=C(\C)C[C@@H]56)CC4)cn3)nc2n(C2CCCC2)c1=O` (stereo partly drawn) [Compound 6, 6-Acetyl-8-cyclopentyl-2-((5-(4-(((3R,3aS,9aR,10aS,10bS,E)-6,9a-dimethyl-2-oxo2,3,3a,4,5,8,9,9a,10a,10b-decahydrooxireno[2′,3′:9,10]cyclodeca[1,2-b]furan-3yl)methyl)piperazin-1-yl)pyridin-2-yl)amino)-5-methylpyrido[2,3-d]pyrimidin-7(8H)-one], the “fold less potent than palbociclib” value on CDK4 is around 200 fold; on CDK6, around 50 fold. The IC50 on CDK4 is 0.085 ± 0.018 µM; on CDK6, 0.018 ± 0.001 µM; in data set [2] it was above 40 µM; in data set [3], 25.6 ± 4.8 µM; in data set [4] it was 25 ± 3.2 µM; in data set [5] it was 32.6 ± 4.4 µM. The IC50 was 38.4 ± 4.5 µM in data set [6]; 31 ± 7 µM in data set [7]; above 40 µM in data set [8]; above 40 µM in data set [9]; 31.1 ± 2.3 µM in data set [10]; above 40 µM in data set [11]. Besides, the concentration for half-maximal inhibition (IC50) in [12] is 34.9 ± 6.3 µM. For the same molecule, the “fold less potent than the corresponding 1:1 mixture, on an average” value in [13] was around 7 fold.
As to `O=C(NC1CCN(CC2CC3(OC2=O)C(=O)Nc2ccccc23)CC1)c1n[nH]cc1NC(=O)c1c(Cl)cccc1Cl` (stereo not drawn) [Compound 7, 4-(2,6-dichlorobenzamido)-N-(1-((2′,5-dioxo-4,5-dihydro-3H-spiro[furan-2,3′-indolin]-4yl)methyl)piperidin-4-yl)-1H-pyrazole-3-carboxamide], the “potency relative to the palbociclib based compounds (compounds 5 and 6)” value in [1] is listed as “more potent”.
The same measure, in the same setting: for `C/C1=C\CCC[C@@]2(C)O[C@@H]2[C@H]2OC(=O)C(CN3CCC(NC(=O)c4n[nH]cc4NC(=O)c4c(Cl)cccc4Cl)CC3)[C@@H]2C1` (stereo partly drawn) [Compound 8, 4-(2,6-dichlorobenzamido)-N-(1-(((3R,3aS,9aR,10aS,10bS,E)-6,9a-dimethyl-2-oxo2,3,3a,4,5,8,9,9a,10a,10b-decahydrooxireno[2′,3′:9,10]cyclodeca[1,2-b]furan-3yl)methyl)piperidin-4-yl)-1H-pyrazole-3-carboxamide] the value was “more potent”.
Take `C=C1CC2(OC1=O)C(=O)Nc1ccccc12` (stereo not drawn) [Compound 19, 4-methylene-3,4-dihydro-5H-spiro(furan-2,3′-indoline)-2′,5-dione, reference compound]: the “reactivity towards free cysteine” value in data set [14] is recorded as “reacted rapidly”. Moreover, the half-maximal inhibitory concentration (IC50) was 2.15 ± 0.15 µM in data set [15], 5.28 ± 0.17 µM in data set [16] and 20.4 ± 4.71 µM in data set [17]. Besides, the “potency rank among inhibitors treated as single agents” value in data set [1] was “AT7519>compound 19>parthenolide>palbociclib”.
On to `O=C1OC2(CC1CN1CCC(C(F)(F)F)CC1)C(=O)Nc1ccccc12` (stereo not drawn) [Compound 19-AP1, 4-((4-(trifluoromethyl)piperidin-1-yl)methyl)-3,4-dihydro-5H-spiro[furan-2,3′-indoline]-2′,5dione], for which the “reactivity towards free cysteine” value in data set [14] is given as “more stable”. Also, the “period over which the prodrug is hydrolyzed slowly to release the active compound 19” value in data set [18] was 72 h. In addition, the IC50 in data set [15] was 5.71 ± 0.24 µM; in data set [16], 10.2 ± 0.56 µM; in data set [17], 10.8 ± 1.28 µM. Moreover, the “potency relative to parent compound 19” value in [17] is recorded as “more potent”.
With `CN(C)CC1CC2(OC1=O)C(=O)Nc1ccccc12` (stereo not drawn) [Compound 19-AP2, 4-((dimethylamino)methyl)-3,4-dihydro-5H-spiro[furan-2,3′-indoline]-2′,5-dione], the values for the 50% inhibitory concentration (IC50) in data set [15], in data set [16] and in [17] were 5.38 ± 0.33 µM, 12 ± 1.26 µM and 9.81 ± 1.07 µM, respectively. In data set [17], the “potency relative to parent compound 19” value is given as “more potent”.
For the molecule `COc1cccc2c1C(=O)c1c(O)c3c(c(O)c1C2=O)C[C@@](O)(/C(CO)=N/NC(=O)CCCCCN1C(=O)C=CC1=O)C[C@@H]3O[C@H]1C[C@H](N)[C@H](O)[C@H](C)O1` [INNO-206], the “cardiotoxicity profile compared with doxorubicin” value in data set [19] was “far superior”.
